From ChEMBL document CHEMBL1201862, “PubChem BioAssay data set” (2004)
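How tested: cells in 96-well plates exposed to compound for 48 hours at five concentrations. GI50 is the concentration that inhibits growth by half.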 Active and inactive are the calls of the source. No stated cut-off is given here; in the data, active = GI50 up to about 1.1 µM and inactive = higher.

Legend:
Experiment in all cases: DTP human tumour cell line panel, 48 h
A498 = system: A498
HCT-116 = system: HCT-116
HT-29 = system: HT-29
Hs-578T = system: Hs-578T
KM12 = system: KM12
MDA-N = system: MDA-N
NCI-H226 = system: NCI-H226
NCI-H460 = system: NCI-H460
NCI-H522 = system: NCI-H522
OVCAR-8 = system: OVCAR-8
PC-3 = system: PC-3
SN12C = system: SN12C
SW-620 = system: SW-620
U-251 = system: U-251
UO-31 = system: UO-31
EKVX = system: EKVX
MOLT-4 = system: MOLT-4
RXF 393 = system: RXF 393
SF-539 = system: SF-539
SK-OV-3 = system: SK-OV-3

| Structure (SMILES) | GI50 (A498) | GI50 (HCT-116) | GI50 (HT-29) | GI50 (Hs-578T) | GI50 (KM12) | GI50 (MDA-N) | GI50 (NCI-H226) | GI50 (NCI-H460) | GI50 (NCI-H522) | GI50 (OVCAR-8) | GI50 (PC-3) | GI50 (SN12C) | GI50 (SW-620) | GI50 (U-251) | GI50 (UO-31) | GI50 (EKVX) | GI50 (MOLT-4) | GI50 (RXF 393) | GI50 (SF-539) | GI50 (SK-OV-3) |
| --- | --- | --- | --- | --- | --- | --- | --- | --- | --- | --- | --- | --- | --- | --- | --- | --- | --- | --- | --- | --- |
| N#Cc1c(=O)c2ccccc2n2ccccc12 | > 100 µM (inactive) | > 100 µM (inactive) | > 100 µM (inactive) | > 100 µM (inactive) | > 100 µM (inactive) | > 100 µM (inactive) | 24.9 µM (inactive) | > 100 µM (inactive) | > 100 µM (inactive) | > 100 µM (inactive) | 19.7 µM (inactive) | > 100 µM (inactive) | 79.8 µM (inactive) | > 100 µM (inactive) | 97.9 µM (inactive) |  |  |  |  |  |
| [N-]=[N+]=NC1CC(n2ccc(N)nc2=O)OC1COP(=O)(O)OP(=O)(O)OP(=O)(O)O (centres undefined) |  | > 100 µM (inactive) | > 100 µM (inactive) | > 100 µM (inactive) |  | > 100 µM (inactive) | > 100 µM (inactive) | > 100 µM (inactive) | > 100 µM (inactive) | > 100 µM (inactive) | > 100 µM (inactive) | > 100 µM (inactive) | > 100 µM (inactive) | > 100 µM (inactive) | > 100 µM (inactive) | > 100 µM (inactive) | > 100 µM (inactive) | > 100 µM (inactive) | > 100 µM (inactive) | > 100 µM (inactive) |
| Cc1nn(C(=O)c2ccc(Cl)cc2)c2c1C(c1ccco1)SC(=N)N2 (centres undefined) |  | > 10 µM (inactive) | > 10 µM (inactive) | > 10 µM (inactive) | > 10 µM (inactive) | > 10 µM (inactive) | > 10 µM (inactive) | > 10 µM (inactive) | > 10 µM (inactive) | > 10 µM (inactive) | > 10 µM (inactive) | > 10 µM (inactive) | > 10 µM (inactive) | > 10 µM (inactive) |  | > 10 µM (inactive) | > 10 µM (inactive) | > 10 µM (inactive) | > 10 µM (inactive) | > 10 µM (inactive) |
| Cc1cccc(-c2cc(O)c3cccnc3n2)c1 |  | 0.385 µM (active) | 0.264 µM (active) | 0.444 µM (active) | 0.173 µM (active) | 0.0431 µM (active) | 4.44 µM (inactive) | 0.475 µM (active) | 0.553 µM (active) | 1.35 µM (inactive) | 1.12 µM (inactive) | 2.75 µM (inactive) | 0.431 µM (active) | 0.449 µM (active) | > 100 µM (inactive) | 2.34 µM (inactive) | 0.902 µM (active) | 6.24 µM (inactive) | 0.92 µM (active) | 0.569 µM (active) |
| Cc1cnc2sn(-c3ccc([N+](=O)[O-])cc3)c(=O)c2c1 |  | > 100 µM (inactive) | > 100 µM (inactive) | 53.5 µM (inactive) | > 100 µM (inactive) | > 100 µM (inactive) | > 100 µM (inactive) | 60.4 µM (inactive) | 34.7 µM (inactive) | 43 µM (inactive) | 66.2 µM (inactive) | > 100 µM (inactive) | > 100 µM (inactive) | 30.1 µM (inactive) | 74.6 µM (inactive) | 74.1 µM (inactive) | > 100 µM (inactive) |  |  | 29 µM (inactive) |
| COC(=O)/C=C/c1ccc2c(c1)[C@H](C(=O)OC)[C@@H](c1ccc(O)cc1)O2 | 86.9 µM (inactive) | 38.5 µM (inactive) | 27.9 µM (inactive) | 31.2 µM (inactive) | 19 µM (inactive) | 5.06 µM (inactive) | 55.8 µM (inactive) | 35.1 µM (inactive) | 21.4 µM (inactive) | 37 µM (inactive) | 23.3 µM (inactive) | 43.5 µM (inactive) | 6.08 µM (inactive) | 21.9 µM (inactive) | 28.5 µM (inactive) | 40 µM (inactive) | 8.45 µM (inactive) |  | 44.7 µM (inactive) | 69 µM (inactive) |
| O=C(O)c1ccccc1CC1Cc2ccccc2C1 |  | > 100 µM (inactive) | > 100 µM (inactive) | > 100 µM (inactive) | > 100 µM (inactive) | > 100 µM (inactive) | > 100 µM (inactive) | > 100 µM (inactive) | > 100 µM (inactive) | > 100 µM (inactive) | > 100 µM (inactive) | > 100 µM (inactive) | > 100 µM (inactive) | > 100 µM (inactive) | > 100 µM (inactive) | > 100 µM (inactive) | > 100 µM (inactive) | > 100 µM (inactive) | > 100 µM (inactive) | > 100 µM (inactive) |
| Cc1cccc(/N=N/C(=N\NC(=O)c2cc(Cl)ccc2O)c2ccc(N(CCC#N)CCC#N)cc2C)c1 |  | 33 µM (inactive) | 28.3 µM (inactive) | 77.6 µM (inactive) | 27.2 µM (inactive) | 55.6 µM (inactive) | 36 µM (inactive) | 26.1 µM (inactive) | 20.8 µM (inactive) | 31.3 µM (inactive) | 25.8 µM (inactive) | 24 µM (inactive) | 46.7 µM (inactive) | 36.1 µM (inactive) | 21.9 µM (inactive) | 34.7 µM (inactive) | 15.9 µM (inactive) | 30.4 µM (inactive) | 33.3 µM (inactive) | 35.7 µM (inactive) |
